Values of other authors in article PMC8481536, “Wells–Dawson phosphotungstates as mushroom tyrosinase inhibitors: a speciation study” (Scientific Reports, 2021).

Target: T1, AbPPO4 (Agaricus bisporus, UniProt C7FF05, S179N/V121A)
T1 construct: GST (glutathione-S-transferase) (N, cleaved yes); made in house; host or cells: E. coli BL21(DE3)
Conditions: cited from earlier work

T1 sequence (C7FF05 1-383 V121A/S179N): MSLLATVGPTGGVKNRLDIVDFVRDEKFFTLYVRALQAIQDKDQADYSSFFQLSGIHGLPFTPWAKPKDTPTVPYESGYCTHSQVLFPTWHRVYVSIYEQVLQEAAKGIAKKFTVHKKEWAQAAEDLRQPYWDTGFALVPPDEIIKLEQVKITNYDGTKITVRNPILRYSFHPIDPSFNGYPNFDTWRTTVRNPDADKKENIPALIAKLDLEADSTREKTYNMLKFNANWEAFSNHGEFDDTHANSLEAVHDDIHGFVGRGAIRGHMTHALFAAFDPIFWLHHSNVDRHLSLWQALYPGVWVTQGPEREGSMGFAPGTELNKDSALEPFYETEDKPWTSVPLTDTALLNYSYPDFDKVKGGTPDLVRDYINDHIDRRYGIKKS

Q: Which Km does the source give for `N[C@@H](Cc1ccc(O)c(O)c1)C(=O)O` [L-DOPA, L-3,4−dihydroxyphenylalanine] here?
A: 26.1 mM
